Assay results as given in ChEMBL document CHEMBL1221341, “[17(20)E]- and [17(20)Z]-pregna-5,17(20)-dien-21-oylamides. Facile synthesis and primary evaluation for cancer cells proliferation” (Bioorg Med Chem Lett, 2010).
Activity calls are given as the source filed them. No cut-off for these calls is given here.

What was measured:
Format in all cases: functional, cell-based
MCF7 [1] = assay: Antiproliferative activity against human MCF7 cells at 30 uM after 48 hrs by MTT assay
MCF7 [2] = assay: Antiproliferative activity against human MCF7 cells at 0.1 to 0.3 uM after 48 hrs by MTT assay
LNCaP [3] = assay: Antiproliferative activity against human LNCAP cells at 30 uM after 48 hrs by MTT assay
LNCaP [4] = assay: Antiproliferative activity against human LNCAP cells at 0.1 to 0.3 uM after 48 hrs by MTT assay

SMILES | Activity (MCF7 [1]) | Activity (MCF7 [2]) | Activity (LNCaP [3]) | Activity (LNCaP [4])
C[C@]12CC[C@H](O)CC1=CC[C@@H]1[C@@H]2CC[C@]2(C)/C(=C/C(=O)NCCO)CC[C@@H]12 | Active | inactive | Active | inactive
C[C@]12CC[C@H](O)CC1=CC[C@@H]1[C@@H]2CC[C@]2(C)/C(=C/C(=O)N3CCCC3)CC[C@@H]12 |  |  |  | Active
C[C@]12CC[C@H](O)CC1=CC[C@@H]1[C@@H]2CC[C@]2(C)/C(=C\C(=O)N3CCCC3)CC[C@@H]12 |  | inactive |  | 
C[C@]12CC[C@H](O)CC1=CC[C@@H]1[C@@H]2CC[C@]2(C)/C(=C/C(N)=O)CC[C@@H]12 | Active | inactive | Active | inactive
